Structures are written as SMILES.

Our source for the melting point values is patent US10131606B2, “Tetrarylmethane ethers” (Rohm and Haas Company, priority 2014, dated 2018).

Regarding `CCCCCCOc1ccc(C(c2ccccc2)(c2ccccc2)c2ccc(OCCCCCC)cc2)cc1` [BHexTPM], the melting point lay in the range of 120 to 122 °C. In the case of `CCCCCOc1ccc(C(c2ccccc2)(c2ccccc2)c2ccc(OCCCCC)cc2)cc1` [BPentTPM, Bis(4-(pentyloxy)phenyl)diphenylmethane], the melting point was 110 to 113 °C.

Regarding `CCCCCCCOc1ccc(C(c2ccccc2)(c2ccccc2)c2ccc(OCCCCCCC)cc2)cc1` [BHeptTPM, Bis(4-(heptyloxy)phenyl)diphenylmethane], the melting point was in the range of 103 to 105 °C. Take `CCCCCCCCOc1ccc(C(c2ccccc2)(c2ccccc2)c2ccc(OCCCCCCCC)cc2)cc1` [BOctTPM, Bis(4-(octyloxy)phenyl)diphenylmethane]: the melting point was in the range of 84.5 to 86.5 °C.
